Measurements: ChEMBL document CHEMBL4229379, “Synthesis and structure-activity relationship of novel bisindole amidines active against MDR Gram-positive and Gram-negative bacteria” (Eur J Med Chem, 2018)
Converted amounts (≈) assume the structure as drawn.

Tests used:
Staphylococcus aureus [1] = experiment: Antibacterial activity against methicillin-sensitive Staphylococcus aureus 12-28 after 18 hrs by CLSI broth microdilution method; assay type: functional; settings: 12-28, 18 h
[2] = system: Acinetobacter calcoaceticus; experiment: Antibacterial activity against Acinetobacter calcoaceticus ATCC 19606 after 18 hrs by CLSI broth microdilution method; assay type: functional; settings: ATCC 19606, 18 h
Staphylococcus aureus [3] = experiment: Antibacterial activity against methicillin-resistant Staphylococcus aureus ATCC 33591 after 18 hrs by CLSI broth microdilution method; assay type: functional; settings: ATCC 33591, 18 h
Escherichia coli [4] = experiment: Antibacterial activity against extended-spectrum beta-lactamase deficient Escherichia coli 12-14 after 18 hrs by CLSI broth microdilution method; assay type: functional; settings: 12-14, 18 h
Providencia rettgeri = experiment: Antibacterial activity against Providencia rettgeri ATCC 31052 after 18 hrs by CLSI broth microdilution method; assay type: functional; settings: ATCC 31052, 18 h
Escherichia coli [5] = experiment: Antibacterial activity against extended-spectrum beta-lactamase deficient Escherichia coli 1515 after 18 hrs by CLSI broth microdilution method; assay type: functional; settings: Escherichia coli, 1515, 18 h
[6] = Cytotoxicity against HEK293T cells assessed as reduction in cell viability after 48 hrs by MTS assay; assay type: cell-based, HEK-293T; settings: human
Escherichia coli [7] = experiment: Antibacterial activity against extended-spectrum beta-lactamase harboring Escherichia coli 12-15 after 18 hrs by CLSI broth microdilution method; assay type: functional; settings: 12-15, 18 h
Klebsiella aerogenes = experiment: Antibacterial activity against Enterobacter aerogenes ATCC 13048 after 18 hrs by CLSI broth microdilution method; assay type: functional; settings: ATCC 13048, 18 h
Escherichia coli [8] = experiment: Antibacterial activity against extended-spectrum beta-lactamase deficient Escherichia coli ATCC 25922 after 18 hrs by CLSI broth microdilution method; assay type: functional; settings: ATCC 25922, 18 h
Enterococcus faecalis [9] = experiment: Antibacterial activity against vancomycin-resistant Enterococcus faecalis 09-9 after 18 hrs by CLSI broth microdilution method; assay type: functional; settings: 09-9, 18 h
Staphylococcus aureus [10] = experiment: Antibacterial activity against methicillin-sensitive Staphylococcus aureus 15 after 18 hrs by CLSI broth microdilution method; assay type: functional; settings: Staphylococcus aureus, 15, 18 h
Enterobacter cloacae = experiment: Antibacterial activity against Enterobacter cloacae ATCC 43560 after 18 hrs by CLSI broth microdilution method; assay type: functional; settings: ATCC 43560, 18 h
Enterococcus faecalis [11] = experiment: Antibacterial activity against vancomycin-sensitive Enterococcus faecalis ATCC 29212 after 18 hrs by CLSI broth microdilution method; assay type: functional; settings: ATCC 29212, 18 h
Klebsiella pneumoniae [12] = experiment: Antibacterial activity against extended-spectrum beta-lactamase deficient Klebsiella pneumoniae 12-4 after 18 hrs by CLSI broth microdilution method; assay type: functional; settings: 12-4, 18 h
Pseudomonas aeruginosa [13] = experiment: Antibacterial activity against Pseudomonas aeruginosa ATCC 27853 after 18 hrs by CLSI broth microdilution method; assay type: functional; settings: ATCC 27853, 18 h
Enterococcus faecium [14] = experiment: Antibacterial activity against vancomycin-resistant Enterococcus faecium 12-1 after 18 hrs by CLSI broth microdilution method; assay type: functional; settings: 12-1, 18 h
Serratia marcescens = experiment: Antibacterial activity against Serratia marcescens ATCC 21074 after 18 hrs by CLSI broth microdilution method; assay type: functional; settings: ATCC 21074, 18 h
[15] = system: Stenotrophomonas maltophilia; experiment: Antibacterial activity against Stenotrophomonas maltophilia ATCC 13636 after 18 hrs by CLSI broth microdilution method; assay type: functional; settings: ATCC 13636, 18 h
Citrobacter freundii = experiment: Antibacterial activity against Citrobacter freundii ATCC 43864 after 18 hrs by CLSI broth microdilution method; assay type: functional; settings: ATCC 43864, 18 h
Klebsiella pneumoniae [16] = experiment: Antibacterial activity against extended-spectrum beta-lactamase deficient Klebsiella pneumoniae 7 after 18 hrs by CLSI broth microdilution method; assay type: functional; settings: Klebsiella pneumoniae, 7, 18 h
Klebsiella pneumoniae [17] = experiment: Antibacterial activity against extended-spectrum beta-lactamase harboring Klebsiella pneumoniae ATCC 700603 after 18 hrs by CLSI broth microdilution method; assay type: functional; settings: Klebsiella pneumoniae, 700603, 18 h
[18] = system: Staphylococcus epidermidis; experiment: Antibacterial activity against methicillin-sensitive Staphylococcus epidermidis ATCC 12228 after 18 hrs by CLSI broth microdilution method; assay type: functional; settings: ATCC 12228, 18 h
Enterococcus faecium [19] = experiment: Antibacterial activity against vancomycin-sensitive Enterococcus faecium 12-3 after 18 hrs by CLSI broth microdilution method; assay type: functional; settings: 12-3, 18 h
Pseudomonas aeruginosa [20] = experiment: Antibacterial activity against Pseudomonas aeruginosa 12-16 after 18 hrs by CLSI broth microdilution method; assay type: functional; settings: 12-16, 18 h
Klebsiella pneumoniae [21] = experiment: Antibacterial activity against extended-spectrum beta-lactamase harboring Klebsiella pneumoniae 12-8 after 18 hrs by CLSI broth microdilution method; assay type: functional; settings: 12-8, 18 h
[22] = system: Staphylococcus epidermidis; experiment: Antibacterial activity against methicillin-resistant Staphylococcus epidermidis 12-8 after 18 hrs by CLSI broth microdilution method; assay type: functional; settings: 12-8, 18 h
[23] = system: Staphylococcus epidermidis; experiment: Antibacterial activity against methicillin-sensitive Staphylococcus epidermidis 12-6 after 18 hrs by CLSI broth microdilution method; assay type: functional; settings: 12-6, 18 h
Proteus vulgaris = experiment: Antibacterial activity against Proteus vulgaris ATCC 29905 after 18 hrs by CLSI broth microdilution method; assay type: functional; settings: ATCC 29905, 18 h
Staphylococcus aureus [24] = experiment: Antibacterial activity against methicillin-resistant Staphylococcus aureus 12-33 after 18 hrs by CLSI broth microdilution method; assay type: functional; settings: 12-33, 18 h
Enterococcus faecium [25] = experiment: Antibacterial activity against vancomycin-resistant Enterococcus faecium ATCC 700221 after 18 hrs by CLSI broth microdilution method; assay type: functional; settings: ATCC 700221, 18 h
Pseudomonas aeruginosa [26] = experiment: Antibacterial activity against Pseudomonas aeruginosa PAO1 after 18 hrs by CLSI broth microdilution method; assay type: functional; settings: PAO1, 18 h
Enterococcus faecalis [27] = experiment: Antibacterial activity against vancomycin-resistant Enterococcus faecalis ATCC 51299 after 18 hrs by CLSI broth microdilution method; assay type: functional; settings: ATCC 51299, 18 h
Klebsiella pneumoniae [28] = experiment: Antibacterial activity against new delhi metallo-beta-lactamase-1 harboring Klebsiella pneumoniae ATCC BAA-2146 after 18 hrs by CLSI broth microdilution method; assay type: functional; settings: ATCC BAA-2146, 18 h
Proteus mirabilis = experiment: Antibacterial activity against Proteus mirabilis 12-6 after 18 hrs by CLSI broth microdilution method; assay type: functional; settings: 12-6, 18 h
Staphylococcus aureus [29] = experiment: Antibacterial activity against methicillin-sensitive Staphylococcus aureus ATCC 29213 after 18 hrs by CLSI broth microdilution method; assay type: functional; settings: ATCC 29213, 18 h
Enterococcus faecalis [30] = experiment: Antibacterial activity against vancomycin-sensitive Enterococcus faecalis 12-5 after 18 hrs by CLSI broth microdilution method; assay type: functional; settings: 12-5, 18 h

Compound | MIC (Staphylococcus aureus [1]) [µg/mL] | MIC [2] [µg/mL] | MIC (Staphylococcus aureus [3]) [µg/mL] | MIC (Escherichia coli [4]) [µg/mL] | MIC (Providencia rettgeri) [µg/mL] | MIC (Escherichia coli [5]) [µg/mL] | CC50 at 48 h [6] [µg/mL] | MIC (Escherichia coli [7]) [µg/mL] | MIC (Klebsiella aerogenes) [µg/mL] | MIC (Escherichia coli [8]) [µg/mL] | MIC (Enterococcus faecalis [9]) [µg/mL] | MIC (Staphylococcus aureus [10]) [µg/mL] | MIC (Enterobacter cloacae) [µg/mL] | MIC (Enterococcus faecalis [11]) [µg/mL] | MIC (Klebsiella pneumoniae [12]) [µg/mL] | MIC (Pseudomonas aeruginosa [13]) [µg/mL] | MIC (Enterococcus faecium [14]) [µg/mL] | MIC (Serratia marcescens) [µg/mL] | MIC [15] [µg/mL] | MIC (Citrobacter freundii) [µg/mL] | further results
CN(C)C(=N)c1ccc2cc(-c3ccc4cc(-c5cc6ccc(C(=N)N(C)C)cc6[nH]5)ccc4c3)[nH]c2c1 | 2 (≈ 4.01 µM) | 128 (≈ 257 µM) | 2 (≈ 4.01 µM) | 32 (≈ 64.2 µM) | 128 (≈ 257 µM) | 32 (≈ 64.2 µM) | 6.2 (≈ 12.4 µM) | 64 (≈ 128 µM) | > 128 | 32 (≈ 64.2 µM) | 4 (≈ 8.02 µM) | 2 (≈ 4.01 µM) | 64 (≈ 128 µM) | 32 (≈ 64.2 µM) | > 128 | > 128 | 32 (≈ 64.2 µM) | > 128 | 32 (≈ 64.2 µM) | 32 (≈ 64.2 µM) | MIC (Klebsiella pneumoniae [16]): > 128 µg/mL; MIC (Klebsiella pneumoniae [17]): > 128 µg/mL; MIC [18]: 2 µg/mL (≈ 4.01 µM); MIC (Enterococcus faecium [19]): 16 µg/mL (≈ 32.1 µM); MIC (Pseudomonas aeruginosa [20]): > 128 µg/mL; MIC (Klebsiella pneumoniae [21]): 128 µg/mL (≈ 257 µM); MIC [22]: 1 µg/mL (≈ 2.01 µM); MIC [23]: 32 µg/mL (≈ 64.2 µM); MIC (Proteus vulgaris): 64 µg/mL (≈ 128 µM); MIC (Staphylococcus aureus [24]): 2 µg/mL (≈ 4.01 µM); MIC (Enterococcus faecium [25]): 32 µg/mL (≈ 64.2 µM); MIC (Pseudomonas aeruginosa [26]): > 128 µg/mL; MIC (Enterococcus faecalis [27]): 32 µg/mL (≈ 64.2 µM); MIC (Klebsiella pneumoniae [28]): > 128 µg/mL; MIC (Proteus mirabilis): > 128 µg/mL; MIC (Staphylococcus aureus [29]): 2 µg/mL (≈ 4.01 µM); MIC (Enterococcus faecalis [30]): 32 µg/mL (≈ 64.2 µM)
c1cc2cc(-c3ccc(-c4cc5ccc(C6=NCCCN6)cc5[nH]4)cc3)[nH]c2cc1C1=NCCCN1 | 0.25 (≈ 0.529 µM) | 64 (≈ 135 µM) | 0.25 (≈ 0.529 µM) | 4 (≈ 8.46 µM) | 8 (≈ 16.9 µM) | 8 (≈ 16.9 µM) | 4.33 (≈ 9.16 µM) | 8 (≈ 16.9 µM) | 8 (≈ 16.9 µM) | 4 (≈ 8.46 µM) | 0.5 (≈ 1.06 µM) | 0.25 (≈ 0.529 µM) | 8 (≈ 16.9 µM) | 0.5 (≈ 1.06 µM) | 8 (≈ 16.9 µM) | 4 (≈ 8.46 µM) | 0.25 (≈ 0.529 µM) | 16 (≈ 33.9 µM) | 4 (≈ 8.46 µM) | 4 (≈ 8.46 µM) | MIC (Klebsiella pneumoniae [16]): 8 µg/mL (≈ 16.9 µM); MIC (Klebsiella pneumoniae [17]): 32 µg/mL (≈ 67.7 µM); MIC [18]: 0.25 µg/mL (≈ 0.529 µM); MIC (Enterococcus faecium [19]): 1 µg/mL (≈ 2.12 µM); MIC (Pseudomonas aeruginosa [20]): 16 µg/mL (≈ 33.9 µM); MIC (Klebsiella pneumoniae [21]): 8 µg/mL (≈ 16.9 µM); MIC [22]: 0.25 µg/mL (≈ 0.529 µM); MIC [23]: 0.25 µg/mL (≈ 0.529 µM); MIC (Proteus vulgaris): 16 µg/mL (≈ 33.9 µM); MIC (Staphylococcus aureus [24]): 0.25 µg/mL (≈ 0.529 µM); MIC (Enterococcus faecium [25]): 0.25 µg/mL (≈ 0.529 µM); MIC (Pseudomonas aeruginosa [26]): 4 µg/mL (≈ 8.46 µM); MIC (Enterococcus faecalis [27]): 0.5 µg/mL (≈ 1.06 µM); MIC (Klebsiella pneumoniae [28]): 16 µg/mL (≈ 33.9 µM); MIC (Proteus mirabilis): 128 µg/mL (≈ 271 µM); MIC (Staphylococcus aureus [29]): 0.25 µg/mL (≈ 0.529 µM); MIC (Enterococcus faecalis [30]): 0.5 µg/mL (≈ 1.06 µM)
